Assay results taken from patent publication US6956035B2, “Isoquinoline derivatives and methods of use thereof” (Inotek Pharmaceuticals Corporation, priority 2001, dated 2005).
Marks after values point to notes of the source that are not given here.

Legend:
PARS = target: T1, PARS (Mus musculus, UniProt P11103); assay: PARS activation in peroxynitrite-stimulated cultured RAW macrophages (whole-cell assay, 3H-NAD+ incorporation); assay type: cell-based; conditions: cultured murine macrophages; for inhibition at 0.1 µM / % PARS inhibition at 100 nM: 100 nM
T1 construct: endogenous in cells; host or cells: RAW mouse macrophages
Method: RAW mouse macrophages were cultured in DMEM medium with high glucose and supplemented with 10% fetal bovine serum. Cells were used at 80% confluence in 12-well plates. Cells were pretreated with various concentrations (100 nM-1 μM) of an Isoquinoline Derivative for 10 min. Peroxynitrite, a prototypical oxidant which induces DNA single strand breakage, was used to induce PARS activation. Peroxynitrite was diluted in phosphate buffered saline (PBS) (pH 11.0) and added to the cells in a bolus of 50 μl. Cells were then incubated for 20 min. […] Following an incubation in assay buffer, (10 min at 37° C.), PARS activity was measured as follows: 200 μl ice cold 50% w/v TCA was added and the samples were incubated for 4 hours at 4° C. Samples were then spun (10 min@10,000 g) and pellets washed twice with ice cold 5% w/v TCA and solubilized overnight in 250 μl 2% w/v SDS/0.1 N NaOH at 37° C. The contents of the tubes were added to 6.5 ml ScintiSafe Plus scintillation liquid (Fisher Scientific) and radioactivity was determined using a liquid scintillation counter (Wallac, Gaithersburg, Md.).

rat = assay: Rat model of middle cerebral artery occlusion/reperfusion; assay type: in vivo; conditions: 3 mg/kg/day i.p.
Method: Occlusion lasted for 2 hours, followed by reperfusion for 24 hours. Infarct size was quantified with tetrazolium staining. […] There was an approximately 80% reduction in the degree of cortical necrosis and neuronal death in the animals administered with 8l, when compared to vehicle-treated controls.

purified PARS enzyme = target: T2, purified PARS enzyme (Homo sapiens, UniProt P09874); assay: Purified PARS enzyme inhibition assay (Trevigen kit, 96 well ELISA plates); assay type: biochemical; conditions: starred values: tested in purified enzyme assay
T2 construct: purchased Trevigen, Gaithersburg, Md
Method: The assay was performed in 96 well ELISA plates according to instructions provided with a commercially available PARS inhibition assay kit (Trevigen, Gaithersburg, Md.). Briefly, wells were coated with 1 mg/mL histone (50 μl/well) at 4° C. overnight. Plates were then washed four times with PBS and then blocked by adding 50 μl Strep-Diluent (supplied with the kit). After incubation (1 h, room temperature), the plates were washed four times with PBS. Appropriate dilutions of PARS inhibitors were combined with 2×PARS cocktail (1.95 mM NAD^+, 50 μM biotinylated NAD^+ in 50 mM TRIS pH 8.0, 25 mM MgCl2) and high specific activity PARS enzyme (both were supplied with the kit) in a volume of 50 μl. The reaction was allowed to proceed for 30 min at room temperature. After 4 washes in PBS, incorporated biotin was detected by peroxidase-conjugated streptavidin (1:500 dilution) and TACS Sapphire substrate.

mice = assay: Single high-dose streptozotocin model of diabetes; assay type: in vivo; conditions: 3 mg/kg i.p.; STZ 160 mg/kg; blood sugar 3 days later; STZ + Vehicle 320 ± 13, basal 153 ± 21
Method: PARS inhibitors and PARS deficiency are known to reduce the development of diabetes and the incidence of diabetic complications (Mabley et al., Br J Pharmacol. 2001, 133(6):909-9; and Soriano et al., Nat Med. 2001, 7(1):108-13). […] Briefly, 160 mg/kg streptozotocin was injected to mice treated with vehicle or with illustrative Isoquinoline Derivatives intraperitoneally (3 mg/kg) and 3 days later blood sugar levels were determined using a blood glucose meter.

TNF-alpha = assay: LPS induced TNF production in mice in vivo; conditions: LPS 10 mg/kg i.p., plasma at 90 minutes, vehicle 6994.0

T1 sequence (P11103 whole entry): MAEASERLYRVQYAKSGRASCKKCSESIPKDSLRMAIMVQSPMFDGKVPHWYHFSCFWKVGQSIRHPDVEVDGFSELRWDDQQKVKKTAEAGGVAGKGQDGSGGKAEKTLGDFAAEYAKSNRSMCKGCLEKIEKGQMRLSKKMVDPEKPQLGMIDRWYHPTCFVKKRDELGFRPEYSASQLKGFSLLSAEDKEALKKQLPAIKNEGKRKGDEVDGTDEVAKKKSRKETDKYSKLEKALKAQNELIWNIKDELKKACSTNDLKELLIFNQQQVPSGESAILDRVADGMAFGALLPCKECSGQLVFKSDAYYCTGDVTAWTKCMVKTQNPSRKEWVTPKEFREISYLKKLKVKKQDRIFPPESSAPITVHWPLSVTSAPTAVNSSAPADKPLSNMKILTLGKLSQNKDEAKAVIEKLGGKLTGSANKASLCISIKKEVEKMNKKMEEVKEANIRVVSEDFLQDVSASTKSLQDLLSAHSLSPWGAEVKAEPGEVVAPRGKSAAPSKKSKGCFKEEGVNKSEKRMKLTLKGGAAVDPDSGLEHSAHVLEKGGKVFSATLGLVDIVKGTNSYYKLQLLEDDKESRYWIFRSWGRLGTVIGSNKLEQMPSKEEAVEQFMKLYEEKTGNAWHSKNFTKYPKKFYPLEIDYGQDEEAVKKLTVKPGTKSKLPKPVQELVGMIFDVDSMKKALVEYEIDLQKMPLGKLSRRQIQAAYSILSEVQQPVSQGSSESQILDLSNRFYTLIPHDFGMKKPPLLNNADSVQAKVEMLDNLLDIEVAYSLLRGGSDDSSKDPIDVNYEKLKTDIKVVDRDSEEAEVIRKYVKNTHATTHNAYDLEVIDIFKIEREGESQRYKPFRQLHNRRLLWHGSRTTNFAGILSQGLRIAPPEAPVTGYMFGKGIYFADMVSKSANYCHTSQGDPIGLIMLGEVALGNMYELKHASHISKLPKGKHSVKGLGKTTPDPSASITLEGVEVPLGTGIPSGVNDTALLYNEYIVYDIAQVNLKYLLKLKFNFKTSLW
T2 sequence (P09874 whole entry): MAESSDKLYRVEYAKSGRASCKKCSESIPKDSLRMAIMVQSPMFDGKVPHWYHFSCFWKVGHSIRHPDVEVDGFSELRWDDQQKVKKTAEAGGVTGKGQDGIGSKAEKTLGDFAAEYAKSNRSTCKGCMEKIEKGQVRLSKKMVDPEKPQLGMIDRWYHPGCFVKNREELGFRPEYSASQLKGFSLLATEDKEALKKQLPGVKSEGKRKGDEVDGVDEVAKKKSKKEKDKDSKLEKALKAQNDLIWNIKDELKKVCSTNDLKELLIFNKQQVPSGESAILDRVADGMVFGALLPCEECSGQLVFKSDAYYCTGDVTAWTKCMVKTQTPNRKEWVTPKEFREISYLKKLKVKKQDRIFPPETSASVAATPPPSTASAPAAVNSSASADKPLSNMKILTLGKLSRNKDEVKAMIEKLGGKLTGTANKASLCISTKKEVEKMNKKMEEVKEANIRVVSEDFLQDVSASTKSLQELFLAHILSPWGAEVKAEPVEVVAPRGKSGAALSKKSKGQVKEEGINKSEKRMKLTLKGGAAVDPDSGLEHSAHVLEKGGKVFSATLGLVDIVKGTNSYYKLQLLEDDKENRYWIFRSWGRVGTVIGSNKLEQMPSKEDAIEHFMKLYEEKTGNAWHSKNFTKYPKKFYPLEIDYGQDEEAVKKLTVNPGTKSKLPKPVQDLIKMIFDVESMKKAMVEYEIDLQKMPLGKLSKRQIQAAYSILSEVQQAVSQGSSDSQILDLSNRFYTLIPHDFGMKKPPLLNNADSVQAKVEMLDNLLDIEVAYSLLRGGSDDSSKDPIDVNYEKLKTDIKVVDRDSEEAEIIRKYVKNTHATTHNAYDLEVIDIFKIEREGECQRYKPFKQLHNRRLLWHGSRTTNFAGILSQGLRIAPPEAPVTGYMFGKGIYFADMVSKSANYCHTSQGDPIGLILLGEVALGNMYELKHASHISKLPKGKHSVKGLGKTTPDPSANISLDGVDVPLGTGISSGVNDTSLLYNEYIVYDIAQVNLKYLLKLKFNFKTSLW

SMILES | inhibition at 0.1 µM (PARS) [%] | inhibition at 1 µM (PARS) [%] | inhibition at 0.3 µM (PARS; 300 nM) [%] | other results
O=c1[nH]c2c3ccccc3oc2c2ccccc12 [Compound 22a] | 51 | 81 | – | –
O=c1[nH]c2c(c3ccccc13)C(N1CCNCC1)c1ccccc1-2 (racemic) [Compound 5c, (±) 11-piperizin-5,6-dihydro-5-oxo-11H-indeno[1,2-c]isoquinoline] | – | – | – | % PARS inhibition at 100 nM (PARS): 0%; % PARS inhibition at 1 μM (PARS): 24%
O=c1[nH]c2c(c3ccccc13)Cc1cc(S(=O)(=O)NCCCN3CCOCC3)ccc1-2 [Compound 8l, 9-[N-(3-[morpholino-4-yl]propyl)-aminosulphonyl]-5,6-dihydro-5-oxo-11H-indeno-[1,2-c]isoquinoline] | – | – | – | functional benefit (rat): neurological improvements
COc1cccc2c1oc1c3ccccc3c(=O)[nH]c21 [Compound 22d] | – | – | – | inhibition at 1 µM (purified PARS enzyme; 1 μM): 13%
O=C(O)c1ccc2c(c1)oc1c3ccccc3c(=O)[nH]c21 [Compound 22g] | – | 27 | 23 | –
NS(=O)(=O)c1ccc2c3[nH]c(=O)c4ccccc4c3n(S(N)(=O)=O)c2c1 [Compound 35a, 6H,11H-Indole-[3,2-C]-Isoquinoline-5-one-9,11-disulfonamide] | – | – | – | % PARS inhibition at 100 nM (PARS): 14%; % PARS inhibition at 1 μM (PARS): 75%
O=c1[nH]c2c(c3ccccc13)Cc1cc(S(=O)(=O)N3CCC[C@H]3CO)ccc1-2 [Compound 8e, 9-[N-(2-hydroxyprolinyl)sulphonyl]-5,6-dihydro-5-oxo-11H-indeno[1,2-c]isoquinoline] | – | – | – | % PARS inhibition at 300 nM (PARS; 300 nM): 68%
O=c1[nH]c2c(c3ccccc13)Cc1cc(S(=O)(=O)NCCN3CCOCC3)ccc1-2 [Compound 8j, 9-[N-(2-[morpholino-4-yl]ethyl)-aminosulphonyl]-5,6-dihydro-5-oxo-11H-indeno[1,2-c]isoquinoline] | – | – | – | Glucose (mice): 253 ± 24
Cc1ccc2oc3c4ccccc4c(=O)[nH]c3c2c1 [Compound 22e] | 38 | 53 | 56 | –
O=c1[nH]c2c3cccc(O)c3oc2c2ccccc12 [Compound 23c] | 63 | 63 | 66 | –
CN1CCN(C2c3ccccc3-c3[nH]c(=O)c4ccccc4c32)CC1 (racemic) [Compound 5d, (±) 11-(N-methylpiperazin)-5,6-dihydro-5-oxo-11H-indeno[1,2-c]isoquinoline] | – | – | – | % PARS inhibition at 1 μM (PARS): 48%
O=c1[nH]c2c3ccccc3[nH]c2c2ccccc12 [Compound 31, 6H,11H-Indole-[3,2-C]-Isoquinoline-5-one] | – | – | – | % PARS inhibition at 100 nM (PARS): 18%
O=C(O)CCNC(=O)c1ccc2oc3c4ccccc4c(=O)[nH]c3c2c1 [Compound 26b] | – | – | – | % PARS inhibition at 100 nM (purified PARS enzyme): 21* %
COc1ccc2c(c1)oc1c3ccccc3c(=O)[nH]c21 [Compound 22c] | 62 | 83 | 66 | –
O=c1[nH]c2c3ccc(S(=O)(=O)O)cc3n(S(=O)(=O)O)c2c2ccccc12 [Compound 34] | – | – | – | % PARS inhibition at 100 nM (purified PARS enzyme): 14* %; % PARS inhibition at 300 nM (purified PARS enzyme; 300 nM): 33* %
CCN(CC)CCN(CCN(CC)CC)S(=O)(=O)c1ccc2c(c1)Cc1c-2[nH]c(=O)c2ccccc12 [Compound 8p, 9-[N,N-di-(2-[N,N-diethylamino]ethyl)-aminosulphonyl]-5,6-dihydro-5-oxo-11H-indeno-[1,2-c]isoquinoline] | 27 | – | 45 | TNF (TNF-alpha; 0.1 mg/kg i.p. pretreatment): 4470 pg/mL; TNF (TNF-alpha; 1.0 mg/kg i.p. pretreatment): 5090 pg/mL; Glucose (mice): 264 ± 24 mg/dL
CN(C)CCN(CCN(C)C)S(=O)(=O)c1ccc2c(c1)Cc1c-2[nH]c(=O)c2ccccc12 [Compound 8q, 9-[N,N-di-(2-[N,N-dimethylamino]ethyl)-aminosulphonyl]-5,6-dihydro-5-oxo-11H-indeno-[1,2-c]isoquinoline] | 20 | – | 28 | –
O=C(O)c1ccc2oc3c4ccccc4c(=O)[nH]c3c2c1 [Compound 22f] | – | 27 | 23 | –
